Measured values: ChEMBL document CHEMBL1130563, “The synthesis of (R)-1-(2-oxocyclopentyliden)-2-alkanols and the (S)-forms, and their bio-antimutagenic activity against UV-induced Escherichia coli WP2 B/r Trp” (1997)
Calls of active or inactive are those of the source. No cut-off for these calls is given here.

Legend:
Escherichia coli [1] = assay: Microbicidal activity against UV-induced Escherichia coli WP2 B/r Trp at a dose of 120 ug/mL; Not active; assay type: functional, organism-based
Escherichia coli [2] = assay: Bio-antimutagenic activity against UV-induced Escherichia coli WP2 B/r Trp; assay type: functional
Escherichia coli [3] = assay: Microbicidal activity against UV-induced Escherichia coli WP2 B/r Trp at a dose of 150 ug/mL; Not active; assay type: functional, organism-based
Escherichia coli [4] = assay: Bio-antimutagenic activity against UV-induced Escherichia coli WP2 B/r Trp; Not active; assay type: functional, organism-based
Escherichia coli [5] = assay: Compound was tested for half inhibition-dose of mutation frequency of UV-induced Escherichia coli WP2 B/r Trp; assay type: functional

SMILES	Activity (Escherichia coli [1])	AD50 (Escherichia coli [2]) [µg/mL]	Activity (Escherichia coli [3])	AD50 (Escherichia coli [4])	AD50 (Escherichia coli [5]) [µg/mL]
CCCCCC[C@H](O)/C=C1/CCCC1=O	inactive	50	–	–	–
CCCCCCCC[C@@H](O)/C=C1/CCCC1=O	–	–	inactive	inactive	–
CCCCCC[C@@H](O)/C=C1/CCCC1=O	–	–	inactive	inactive	–
CCCCCCCC[C@H](O)/C=C1/CCCC1=O	inactive	50	–	–	–
CCCCCCC(O)/C=C1/CCCC1=O (stereo not given)	–	–	–	–	79
CCCCCCCCC(O)/C=C1/CCCC1=O (stereo not given)	–	–	–	–	6.7
